Test results: US20110209253A1, “Method for Improving Plant Health” (BASF SE, priority 2008, published 2011)
Like-named read-outs stand apart in the source and are kept apart here.

Test system: Wheat plants (Triticum aestivum cv. Monopol)
Assay: Growth-promoting effect on wheat plants after foliar treatment (Example 3)
Format: in vivo
Conditions: after 18 days; for activity at 7.5 g/ha / activity at 15 g/ha: Triticum aestivum, 432 h
Description: Wheat plants (Triticum aestivum cv. Monopol) were grown in soil with ten plants per pot (13 cm diameter) under greenhouse conditions. Plants at the 2nd leaf stage were sprayed with aqueous solutions of formulated compounds: • Compound 2: 5-Methyl-2-trifluoromethyl-furan-3-carboxylic acid (1-methylcarbamoyl-2-phenyl-ethyl)-amide • Compound 3: 1-Methyl-3-trifluoromethyl-1H-pyrazole-4-carboxylic acid (1-methylcarbamoyl-2-phenyl-ethyl)-amide • Compound 4: Methyl-carbamic acid-2-methylcarbamoyl-2-[(1-methyl-3-trifluoromethyl-1H-pyrazole-4-carbonyl)-amino]-ethyl ester • Compound 5: Methyl-carbamic acid-2-methylcarbamoyl-2-[(1-methyl-3-trifluoromethyl-1H-pyrazole-4-carbonyl)-amino]-1-(tetrahydro-pyran-4-yl)-ethyl ester • Compound 6: Methyl-carbamic acid 1,1-dimethyl-2-methylcarbamoyl-2-[(1-methyl-3-trifluoromethyl-1H-pyrazole-4-carbonyl)-amino]-ethyl ester • Compound 7: 1-Methyl-3-trifluoromethyl-1H-pyrazole-4-carboxylic acid (2-hydroxy-3-methoxy-2-methoxymethyl-1-methylcarbamoyl-propyl)-amide • Compound 8: Methyl-carbamic acid 1,1-bis-methoxymethyl-2-methylcarbamoyl-2-[(1-methyl-3-trifluoromethyl-1H-pyrazole-4-carbonyl)-amino]-ethyl ester • Compound 9: Methyl-carbamic acid (E)-1-methyl-1-{methylcarbamoyl-[(1-methyl-3-trifluoromethyl-1H-pyrazole-4-carbonyl)-amino]-methyl}-but-2-enyl ester The compounds were applied at two different dose rates (15 and 7.5 g ai/ha) and the spray volume was 750 I/ha. Six replicate pots with ten plants each were used per treatment. After 18 days plants were harvested and growth parameters were determined. The recorded parameters were fresh weight (FW) and dry weight (DW). Mean values of results, standard deviation (SD) and percentage to control were calculated.

[1] = 7.5 g/ha foliar spray, read-out: Shoot DW % of control
[2] = 7.5 g/ha foliar spray, read-out: Shoot FW % of control
[3] = 15 g/ha foliar spray, read-out: Shoot DW % of control
[4] = 15 g/ha foliar spray, read-out: Shoot FW % of control

Structure (SMILES) | Shoot DW (7.5 g/ha foliar spray) | Shoot FW (7.5 g/ha foliar spray) | Shoot DW (15 g/ha foliar spray) | Shoot FW (15 g/ha foliar spray) | activity at 7.5 g/ha [1] | activity at 7.5 g/ha [2] | activity at 15 g/ha [3] | activity at 15 g/ha [4]
CNC(=O)C(Cc1ccccc1)NC(=O)c1cc(C)oc1C(F)(F)F (stereo not shown) [Compound 2, 5-Methyl-2-trifluoromethyl-furan-3-carboxylic acid (1-methylcarbamoyl-2-phenyl-ethyl)-amide] | 3.8 g | 40.9 g | 3.7 g | 38.7 g | 135% | 134% | 131% | 126%
CNC(=O)OC(C1CCOCC1)C(NC(=O)c1cn(C)nc1C(F)(F)F)C(=O)NC (stereo not shown) [Compound 5, Methyl-carbamic acid 2-methylcarbamoyl-2-[(1-methyl-3-trifluoromethyl-1H-pyrazole-4-carbonyl)-amino]-1-(tetrahydro-pyran-4-yl)-ethyl ester] | 3.8 g | 41.2 g | 3.7 g | 39.6 g | 135% | 135% | 133% | 129%
CNC(=O)OCC(NC(=O)c1cn(C)nc1C(F)(F)F)C(=O)NC (stereo not shown) [Compound 4, Methyl-carbamic acid-2-methylcarbamoyl-2-[(1-methyl-3-trifluoromethyl-1H-pyrazole-4-carbonyl)-amino]-ethyl ester] | 3.7 g | 37.7 g | 3.8 g | 40.1 g | 131% | 123% | 137% | 131%
C/C=C/C(C)(OC(=O)NC)C(NC(=O)c1cn(C)nc1C(F)(F)F)C(=O)NC (stereo not shown) [Compound 9, Methyl-carbamic acid (E)-1-methyl-1-{methylcarbamoyl-[(1-methyl-3-trifluoromethyl-1H-pyrazole-4-carbonyl)-amino]-methyl}-but-2-enyl ester] | 3.6 g | 38.8 g | 3.8 g | 39.4 g | 129% | 127% | 135% | 129%
CNC(=O)OC(COC)(COC)C(NC(=O)c1cn(C)nc1C(F)(F)F)C(=O)NC (stereo not shown) [Compound 8, Methyl-carbamic acid 1,1-bis-methoxymethyl-2-methylcarbamoyl-2-[(1-methyl-3-trifluoromethyl-1H-pyrazole-4-carbonyl)-amino]-ethyl ester] | 3.9 g | 39.6 g | 3.7 g | 39.4 g | 138% | 129% | 131% | 121%
CNC(=O)C(Cc1ccccc1)NC(=O)c1cn(C)nc1C(F)(F)F (stereo not shown) [Compound 3, 1-Methyl-3-trifluoromethyl-1H-pyrazole-4-carboxylic acid (1-methylcarbamoyl-2-phenyl-ethyl)-amide] | 3.8 g | 39.4 g | 3.8 g | 39.1 g | 135% | 129% | 135% | 128%
CNC(=O)OC(C)(C)C(NC(=O)c1cn(C)nc1C(F)(F)F)C(=O)NC (stereo not shown) [Compound 6, Methyl-carbamic acid 1,1-dimethyl-2-methylcarbamoyl-2-[(1-methyl-3-trifluoromethyl-1H-pyrazole-4-carbonyl)-amino]-ethyl ester] | 3.7 g | 39.2 g | 3.6 g | 38.2 g | 132% | 128% | 130% | 125%
CNC(=O)C(NC(=O)c1cn(C)nc1C(F)(F)F)C(O)(COC)COC (stereo not shown) [Compound 7, 1-Methyl-3-trifluoromethyl-1H-pyrazole-4-carboxylic acid (2-hydroxy-3-methoxy-2-methoxymethyl-1-methylcarbamoyl-propyl)-amide] | 3.7 g | 38.7 g | 3.7 g | 40.2 g | 131% | 126% | 133% | 131%
